Earlier results on 1 compound are cited in patent publication US20060148877A1, “Pharmaceutical formulations of celcoxib” (TransForm Pharmaceuticals, Inc., priority 2002, published 2006).

Structures are written as SMILES.

The conditions of this data set: commercially available form (CELEBREX), neutral molecule.

As to `Cc1ccc(-c2cc(C(F)(F)F)nn2-c2ccc(S(N)(=O)=O)cc2)cc1` [celecoxib, 4-[5-(4-methylphenyl)-3-(trifluoromethyl)-1H-pyrazol-1-yl]benzenesulfonamide], the solubility in water result is given as “essentially insoluble in water”.
